How the values were obtained:
Experiment in all cases: relative viability (nuclei count vs DMSO), 5 days (fraction); higher = more cells survive
[1] = compound: Cc1cnc(CNC(=O)c2c(=O)c3ccc(N4CCCN(C)CC4)nc3n3c2sc2ccccc23)cn1 [CX-5461] + N=C(N)NC(=N)NCCc1ccccc1 [Phenformin] (partner 250 µM)
Outline: (§1)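 A single step with final 0.05% Triton X-100, 1% formaldehyde and 1 ug/ml Hoechst fixed the cells and stained nuclei 5 days after treatment. Lung cancer cell lines in 1536-well plates had been treated by pin tool the day after seeding with one drug alone or a fixed anchor-drug dose plus five library-drug doses (not always all listed) in √10 steps, and nuclei were counted on 4× images. Relative viability is the ratio of nuclei in treated wells to nuclei in vehicle wells, taken as the median of duplicate plates.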

[2] = compound: Cc1cnc(CNC(=O)c2c(=O)c3ccc(N4CCCN(C)CC4)nc3n3c2sc2ccccc23)cn1 [CX-5461] + CCNC(=O)c1noc(-c2cc(C(C)C)c(O)cc2O)c1-c1ccc(CN2CCOCC2)cc1 [Luminespib] (partner 0.01 µM)
Outline: as §1

[3] = compound: Cc1cnc(CNC(=O)c2c(=O)c3ccc(N4CCCN(C)CC4)nc3n3c2sc2ccccc23)cn1 [CX-5461] + Nc1ncn([C@H]2C[C@H](O)[C@@H](CO)O2)c(=O)n1 [Decitabine] (partner 2 µM)
Outline: as §1

[4] = compound: O=C(Nc1cc(C(F)(F)F)cc(C(F)(F)F)c1)c1cc(Cl)ccc1O [IMD-0354] + C[C@]1(O)C[C@@H](c2nc(-c3ccc4ccc(-c5ccccc5)nc4c3)c3c(N)nccn32)C1 [Linsitinib] (partner 1 µM)
Outline: as §1

Row | Cell Line | relative viability ([1]; first compound 0.01 µM) | relative viability ([1]; first compound 0.03162 µM) | relative viability ([1]; first compound 0.1 µM) | relative viability ([1]; first compound 0.3162 µM) | relative viability ([1]; first compound 1 µM) | relative viability ([2]; first compound 0.01 µM) | relative viability ([2]; first compound 0.03162 µM) | relative viability ([2]; first compound 0.1 µM) | relative viability ([2]; first compound 0.3162 µM) | relative viability ([2]; first compound 1 µM) | relative viability ([3]; first compound 0.01 µM) | relative viability ([3]; first compound 0.03162 µM) | relative viability ([3]; first compound 0.1 µM) | relative viability ([3]; first compound 1 µM) | relative viability ([4]; first compound 0.04 µM) | relative viability ([4]; first compound 0.1265 µM) | relative viability ([4]; first compound 1.265 µM) | relative viability ([4]; first compound 4 µM) | relative viability ([4]; first compound 0.4 µM) | relative viability ([3]; first compound 0.3162 µM)
1 | EKVX | 0.231 | 0.236 | 0.186 | 0.224 | 0.24 | 0.868 | 0.91 | 0.728 | 0.843 | 0.689 | 0.286 | 0.418 | 0.395 | 0.39 | 1.1 | 0.961 | 0.743 | 0.232 | – | –
2 | LXF-289 | 0.523 | 0.526 | 0.521 | 0.255 | 0.276 | 0.627 | 0.798 | 0.823 | 0.732 | 0.662 | 0.412 | 0.377 | 0.404 | 0.351 | 1.04 | 0.932 | 0.459 | 0.108 | 0.768 | –
3 | ABC-1 | 0.23 | 0.212 | 0.213 | – | 0.212 | 0.531 | 0.691 | 0.521 | 0.402 | 0.303 | 0.971 | – | 1.38 | 0.96 | 0.858 | 0.826 | 0.335 | 0.28 | 0.57 | 0.429
4 | NCI-H650 | 0.486 | 0.441 | 0.429 | 0.487 | 0.386 | 0.767 | 0.743 | 0.799 | 0.711 | 0.364 | 0.328 | 0.272 | 0.298 | 0.313 | 1.01 | 0.911 | 0.249 | 0.223 | 0.505 | 0.32
5 | NCI-H2085 | 0.768 | 0.691 | 0.704 | 0.658 | 0.587 | 0.488 | 0.404 | 0.32 | 0.567 | 0.405 | 0.58 | 0.524 | 0.569 | 0.517 | 0.786 | 0.976 | 0.497 | 0.278 | 0.687 | 0.563
6 | NCI-H1944 | 0.228 | 0.193 | 0.181 | 0.159 | 0.122 | 0.854 | 0.711 | 0.864 | 0.51 | 0.672 | 0.478 | 0.443 | 0.429 | 0.44 | 1.08 | 1.12 | 1.24 | 0.111 | – | 0.371
7 | LC-2-ad | 0.618 | 0.627 | 0.564 | 0.398 | 0.442 | 0.981 | 1.04 | 0.869 | 0.925 | 0.424 | 0.805 | 0.867 | 0.809 | 0.79 | 1.02 | 0.844 | 0.108 | 0.123 | 0.369 | 0.795
8 | COR-L 105 | 0.496 | 0.557 | 0.414 | 0.405 | 0.306 | 0.839 | 0.703 | 0.907 | 0.667 | 0.699 | 0.668 | 0.612 | 0.609 | 0.436 | 1.05 | 0.682 | 0.613 | 0.265 | 0.638 | 0.512
